Test results: patent US20220402867A1, “SULFO-SUBSTITUTED BIARYL COMPOUND OR SALT THEREOF, PREPARATION METHOD THEREFOR, AND USE THEREOF” (Shanghai Litedd Co., Ltd., priority 2019, published 2022)
Read-outs that look alike come from different tables or passages of the source.

Legend:
[1] = Pharmacokinetic (PK) assay in mice; type: in vivo; settings: CD-1 mice; for AUC(0-t) / Cmax / half-life / Vd / bioavailability: mouse, plasma; for Vd: read-out: Vss; for bioavailability: Po 5 mg/kg vs IV 1 mg/kg; for CL_obs: values marked **
Description: The PK of each compound was determined as follows: 6 CD-1 mice (obtained from Shanghai Lingchang Biotechnology Co., Ltd.) were divided into two groups, 3 mice in each group. One group was administered intravenously at a dose of 1 mg/kg, and the vehicle was 5% DMSO/40% PEG400/55% (20% 3-CD); one group was administered by oral gavage at a dose of 5 mg/kg, and the vehicle was DMSO/1% methylcellulose (1:99). Blood samples were collected from saphenous vein of lower leg in each group at 0, 0.083, 0.25, 0.5, 1, 2, 4, 6, 8 and 24 h after administration. Approximately 40 μL of the blood samples were collected into anticoagulant tubes containing EDTA-K2. Immediately after collection, the tubes were inverted at least 5 times to ensure uniform mixing, and then placed on ice. The blood samples collected at each time point were centrifuged at 4° C., 8000 rpm for 5 minutes to obtain plasma. Another 1.5 mL centrifuge tube was marked with the compound name, animal number, and time point, and the plasma was transferred to this tube. The plasma was stored at −80° C. until analysis.
Compound concentrations in plasma were determined by UPLC-MS/MS method, and the pharmacokinetic parameters were calculated by Phoenix WinNolin 6.4 pharmacokinetic software on the obtained data.

GST-RORγ LBD (263-509) = target: T1, GST-RORγ LBD (263-509) (Homo sapiens, UniProt P51449); experiment: TR-FRET assay of agonistic activity on RORγ receptor; type: biochemical; settings: for EC50: TR-FRET, GST-RORγ LBD with Biotin-SRC1; for Emax %: maximum activation rate, TOP of fitted curve
T1 construct: GST-RORγ LBD ((263-509) (produced at ChemPartner))
T1 sequence (P51449 263-509): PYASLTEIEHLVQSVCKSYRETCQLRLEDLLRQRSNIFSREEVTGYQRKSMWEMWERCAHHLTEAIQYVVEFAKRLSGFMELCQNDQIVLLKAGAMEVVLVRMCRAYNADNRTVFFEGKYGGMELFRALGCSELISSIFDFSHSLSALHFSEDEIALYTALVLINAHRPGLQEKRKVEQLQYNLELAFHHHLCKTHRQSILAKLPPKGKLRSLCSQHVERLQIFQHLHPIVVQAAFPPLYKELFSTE
Description: A time-resolved fluorescence resonance energy transfer (TR-FRET) assay was used for the compounds of the present disclosure, to determine the agonistic activity of the compounds on the RORγ protein receptor. The agonistic activity is expressed by the concentration for 50% of maximal effect (EC50). The experiment was performed basically with reference to the methods described in ONCOIMMUNOLOGY, 2016, VOL. 5, NO. 12, e1254854.
1. Preparation of RORγ Basal Buffer
A 100 mL basal buffer was prepared, mixed homogeneously and stored for use;
The compounds of the examples shown in the table below were prepared into solutions with DMSO as the solvent, serially diluted at 3-fold dilution to 10 concentrations starting from 10 mM, and added to the corresponding wells of a 384-well plate with each concentration of each compound in duplicate;
a. A 75 nM solution of GST-RORγ LBD ((263-509) (produced at ChemPartner)) and a 4 nM solution of Biotin-SRC1 (Glsbiochem) were prepared with the above basal buffer. The two solutions were 1:1 mixed evenly, and 10 μL of the mixed solution was added into each well of the above 384-well plate. The plate was immediately centrifugated at 1000 rpm for 10 seconds; b. A 1 nM solution of Anti-GST Eu (Cisbio, #61GSTKLA) and a 50 nM solution of SA-APC (Cisbio, […]) were prepared with the above basal buffer. The two solutions were 1:1 mixed evenly, and 10 μL of the mixed solution was added into each well of the above 384-well plate. The plate was immediately centrifugated at 1000 rpm for 10 seconds; c. The resulting 384-well plate was incubated at room temperature for 15 minutes. Data were read on an Envision microplate reader, EC50 values and E max % were calculated.
a. Readings were taken at 665 nm and 615 nm wavelengths respectively on the Envision Microplate Reader, and the ratios between them were normalized. b. Calculation was carried out with the following equation: […]
wherein X is the reading of compounds, Min is the reading of the blank solution, and Max is the reading of 10 μM SRC. c. The concentration-response curve data were fitted by a four-parameter logistic nonlinear regression model, and Emax was the TOP value of the fitted curve.

[2] = Metabolic stability in human liver microsomes; type: in vitro ADME; settings: for microsomal CLint: 0.5 mg protein/mL
Text: (§1) According to standard methods of in vitro metabolic stability studies in the art, eg., the methods described in Kerns, Edward H. and Di Li (2008). Drug-like Properties: Concepts, Structure Design and Methods: from ADME to Toxicity Optimization. San Diego: Academic Press; Di, Li et al., Optimization of a Higher Throughput Microsomal Stability Screening Assay for Profiling Drug Discovery Candidates, J. Biomol. Screen. 2003, The method described in 8(4), 453, the liver microsomal metabolic stability test of the compounds of the present disclosure was carried out analogously as follows.
(§2) The incubation system contained 0.5 mg protein/mL microsomes, cofactors, and PBS, was pre-incubated at 37° C. for 3 min, and then added the substrate (i.e., the test compounds) to initiate the reaction. Samples were taken at 0, 1, 5, 10, 15, 20, 30 and 60 min from the start of the reaction, and an appropriate terminator was added to terminate the reaction.
(§3) The terminator was an ice acetonitrile solution containing 100 ng/mL tolbutamide and 100 ng/mL labetalol.
(§4) Sample treatment (n=3): each appropriate sample was added, vortexed and centrifuged at high speed. The supernatants were collected, and the substrate was detected by HPLC-MS/MS. The peak area at the 0 min was taken as 100%. The peak areas at other time points were converted to percentage of the remaining amount. The natural logarithms of the percentage of remaining amount at each time point was plotted against the incubation time, and the slope (−k) was calculated by linear regression. Then, Clint (uL/min/mg) and half-life (T½, min) of the compounds were calculated following the equation of the inherent clearance rate (Clint)=(k* volume of incubation solution)/mass of liver microsomes.

[3] = target: T2, RORγt (RORγ-LBD chimeric receptor) (Homo sapiens, UniProt P51449); experiment: Luciferase reporter gene assay of RORγt agonistic activity in HEK293T cells; type: cell-based; parameters: Emax: dose or concentration left out as unconfirmed; settings: for Emax: HEK-293T
T2 construct: host or cells: HEK293T
T2 sequence (P51449 269-508 limits assumed): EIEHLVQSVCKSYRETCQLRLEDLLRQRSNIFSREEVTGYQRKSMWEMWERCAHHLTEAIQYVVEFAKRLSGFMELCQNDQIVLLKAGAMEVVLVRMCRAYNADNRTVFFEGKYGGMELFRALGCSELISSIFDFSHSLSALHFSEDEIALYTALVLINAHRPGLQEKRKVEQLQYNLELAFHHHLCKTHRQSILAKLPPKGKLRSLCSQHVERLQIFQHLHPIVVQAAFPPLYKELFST
Text: This assay was basically carried out according to the method described in the literature ONCOIMMUNOLOGY, 2016, VOL. 5, NO. 12, e1254854.
The RORγ-LBD coding sequence was inserted into pBIND plasmid (Promega, E1581). This expression vector and a reporter vector (pGL4.35 carrying a stably integrated luciferase reporter gene driven by GAL4 promoter) were co-expressed in HEK293T host cells. When the agonist binds to the corresponding chimeric receptor, the chimeric receptor binds to the GAL4 binding site on the reporter gene carrier and stimulates reporter gene expression. The agonistic activity of the compound on RORγ was determined according to the intensity of the chemiluminescence signal.
1.1 All test compounds were serially diluted at 3-fold dilution with DMSO, with 10 serial dilutions starting from 10 mM; LIT-00093 solution was prepared similarly. […] 1.4 The compound plate was sealed and shaken for 5 min.
Cells were cultured according to ATCC standard operation, and 6*10^6 HEK293T cells were seeded into 100 mm cell culture dishes, cultured overnight in a 37° C., 5% CO2 incubator, and then transfected. Compounds of corresponding concentrations were added for treatment, and the Steady-Glo™ kit (Lot E 2520) was used for further detection.
Chemiluminescence values were detected with Envision 2104; EC50 values were calculated.
% Activity was calculated with the following equation: […]
RLU: […] R L Upositive: average value of positive control R L Uvehicle: average value of negative control
The log values of the compound concentration and % Activity were fitted using Graphad 8.0, to calculate EC50s of the compounds.

[4] = Metabolic stability in mouse liver microsomes; type: in vitro ADME, CD-1 mice
Text: as §1, §2, §3, §4

Structure (SMILES): CC(C)(C[C@H]1CN(S(=O)(=O)c2cccc(C(F)(F)F)c2)c2cc(-c3cc(F)cc(OC(F)F)c3)ccc2O1)C(=O)O [LYC-55716, reference compound]
- AUC(0-t) ([1]; IV 1 mg/kg): 256 ng·h/mL
- Cmax ([1]; IV 1 mg/kg): 353 ng/mL
- half-life ([1]; IV 1 mg/kg): 2.63 h
- Vd ([1]; IV 1 mg/kg): 7.23 L/kg
- bioavailability [1]: 21%
- AUC(0-t) ([1]; Po 5 mg/kg): 269 ng·h/mL
- Cmax ([1]; Po 5 mg/kg): 52.6 ng/mL
- half-life ([1]; Po 5 mg/kg): 5.35 h

Structure (SMILES): CCS(=O)(=O)c1ccc(C(COC)C(=O)Nc2cc(Cl)c(-c3ccc(S(=O)(=O)C4CC4)cc3)c(Cl)c2)cc1 (single isomer, unassigned) [Example 41, (S)—N-(2,6-dichloro-4′-(cyclopropylsulfonyl)-[1,1′-biphenyl]-4-yl)-2-(4-(ethylsulfonyl)phenyl)-3-methoxypropionamide or (R)—N-(2,6-dichloro-4′-(cyclopropylsulfonyl)-[1,1′-biphenyl]-4-yl)-2-(4-(ethylsulfonyl)phenyl)-3-methoxypropionamide]
- EC50 (GST-RORγ LBD (263-509)): 0.0246 µM
- Emax % (GST-RORγ LBD (263-509)): 174.7%
- CL_obs ([1]; IV 1 mg/kg): 15.4** mL/min/kg
- AUC(0-t) ([1]; IV 1 mg/kg): 1060 ng·h/mL
- Cmax ([1]; IV 1 mg/kg): 601 ng/mL
- half-life ([1]; IV 1 mg/kg): 1.7 h
- Vd ([1]; IV 1 mg/kg, values marked *): 2.02 L/kg
- bioavailability [1]: 116%
- AUC(0-t) ([1]; Po 5 mg/kg): 6380 ng·h/mL
- Cmax ([1]; Po 5 mg/kg): 1450 ng/mL
- half-life ([1]; Po 5 mg/kg): 2.72 h

Structure (SMILES): CCS(=O)(=O)c1ccc(C(CO)C(=O)Nc2cc(Cl)c(-c3ccc(S(=O)(=O)C4CC4)cc3)c(Cl)c2)cc1 (single isomer, unassigned) [Example 39, (S)—N-(2,6-dichloro-4′-(cyclopropylsulfonyl)-[1,1′-biphenyl]-4-yl)-2-(4-(ethylsulfonyl)phenyl)-3-hydroxypropionamide or (R)—N-(2,6-dichloro-4′-(cyclopropylsulfonyl)-[1,1′-biphenyl]-4-yl)-2-(4-(ethylsulfonyl)phenyl)-3-hydroxypropionamide]
- EC50 (GST-RORγ LBD (263-509)): 0.0135 µM
- Emax % (GST-RORγ LBD (263-509)): 181.3%
- CL_obs ([1]; IV 1 mg/kg): 8.22** mL/min/kg
- AUC(0-t) ([1]; IV 1 mg/kg): 2050 ng·h/mL
- Cmax ([1]; IV 1 mg/kg): 1080 ng/mL
- half-life ([1]; IV 1 mg/kg): 3.7 h
- Vd ([1]; IV 1 mg/kg, values marked *): 1.53 L/kg
- bioavailability [1]: 17.1%
- AUC(0-t) ([1]; Po 5 mg/kg): 1720 ng·h/mL
- Cmax ([1]; Po 5 mg/kg): 400 ng/mL
- half-life ([1]; Po 5 mg/kg): 3 h

Structure (SMILES): CC(C)Cc1ccc(-c2c(Cl)cc(NC(=O)Cc3ccc(S(C)(=O)=O)cc3)cc2Cl)cc1C#N [LIT-00093, reference compound]
- half-life [2]: 0.0783 h
- microsomal CLint [2]: 295 µL/min/mg
- % Remaining (T = 60 min) [2]: 0%
- EC50 ([3]; HEK293T, GAL4 luciferase reporter, read-out: EC50): 0.116 µM
- Emax [3]: 83.9%

Structure (SMILES): COC[C@H](C(=O)Nc1cc(Cl)c(-c2ccc(S(=O)(=O)C3CC3)cc2)c(Cl)c1)c1ccc(S(C)(=O)=O)cc1 (single isomer, unassigned) [Example 35, (S)—N-(2,6-dichloro-4′-(cyclopropylsulfonyl)-[1,1′-biphenyl]-4-yl)-3-methoxy-2-(4-(methylsulfonyl)phenyl)propanamide or (R)—N-(2,6-dichloro-4′-(cyclopropylsulfonyl)-[1,1′-biphenyl]-4-yl)-3-methoxy-2-(4-(methylsulfonyl)phenyl)propanamide]
- CL_obs ([1]; IV 1 mg/kg): 2.40** mL/min/kg
- AUC(0-t) ([1]; IV 1 mg/kg): 6880 ng·h/mL
- Cmax ([1]; IV 1 mg/kg): 1340 ng/mL
- half-life ([1]; IV 1 mg/kg): 3.56 h
- Vd ([1]; IV 1 mg/kg, values marked *): 0.83 L/kg
- bioavailability [1]: 32.8%
- AUC(0-t) ([1]; Po 5 mg/kg): 9140 ng·h/mL
- Cmax ([1]; Po 5 mg/kg): 700 ng/mL
- half-life ([1]; Po 5 mg/kg): 12.3 h

Structure (SMILES): CS(=O)(=O)c1ccc(-c2c(Cl)cc(NC(=O)Cc3ccc(S(=O)(=O)CCO)cc3)cc2Cl)cc1 [Example 14, N-(2,6-Dichloro-4′-(methylsulfonyl)-[1,1′-biphenyl]-4-yl)-2-(4-(2-hydroxyethylsulfonyl)phenyl)acetamide]
- half-life [2]: 1.55 h
- microsomal CLint [2]: 14.9 µL/min/mg
- % Remaining (T = 60 min) [2]: 61.7%
- % Remaining (T = 60 min) ([4]; 60 min): 87.3%
- half-life ([4]; CD-1): > 2.42 h
- microsomal CLint ([4]; CD-1, 0.5 mg protein/mL): < 9.6 µL/min/mg
- EC50 [3]: 0.225 µM
- Emax [3]: 40.7%
